Measurements reported in patent US20130165368A1, “ANTIMICROBIAL COMPOUNDS” (priority 2010, published 2013).
In brackets after ≈: the same amount, converted by molar mass. Like-named read-outs stand apart in the source and are kept apart here.

Legend:
Format in all cases: cell-based
[1] = system: Staphylococcus aureus (MRSA); experiment: MIC agar dilution, micro-organism 12 (11939); settings: Staphylococcus aureus (MRSA) 11939, read-out: MIC
Summary of the method: (§1)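 Twofold dilutions of compound emulsions in water were set in Isosensitest agar with Brazier's CCEY medium, egg yolk and lysed horse blood. Spots of 1 µL from 0.5 McFarland suspensions diluted 1/15 were incubated aerobically at 37 °C and read at 22 and 48 h. MIC (mmol/L) was the lowest concentration giving <10 colonies.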

MRSA FIN 54518 (E7) = experiment: MIC agar dilution, MRSA strain 31; settings: Staphylococcus aureus
Description: (§2) Molar equivalent concentrations were used to allow comparison between compounds of differing molecular mass. Due to weighing difficulties, any compound in solid form was melted in a water bath prior to dilution. To make ten-times strength concentrations, which takes into account agar dilution, 0.0352 mmol of each compound was weighed into plastic universal bottles and 4 mL of sterile distilled water (SDW) was added. To produce a homogenous emulsion the universals were vortexed; once achieved the emulsions were serial diluted by adding 2 mL to 2 mL of SDW.
(§3) For every 100 mL of Isosensitest agar (IST) (CM0471; Oxoid, Basingstoke, England), 3.1 g of the IST powder was added to 100 mL SDW (as per manufacturer's instructions) and sterilised for 15 minutes at 121° C. Once sterilised, the molten agar was cooled to 50° C. in a water-bath. Subsequently 4.8 g of CCEY powder (BC2160; Bioconnections, Wetherby, England), also known as Brazier's medium, was added to 100 mL SDW for every 100 mL of agar needed. This was then sterilised for 15 minutes at 121° C. Once sterilised the molten agar was cooled to 50° C. in a water-bath and 4 mL of egg-yolk emulsion (S2073; TCS Biosciences Ltd, Buckingham, United Kingdom) and 1 mL of lysed defibrinated horse blood (HB035; TCS Biosciences Ltd, Buckingham, United Kingdom) were also added for every 100 mL needed. Horse blood lysis is achieved by dilution to half concentration with SDW; when fully lysed the mixture will turn dark red in colour.
(§4) 18 mL agar was added to each universal and then poured into sterile Petri dishes. This step creates a 1/10 dilution resulting in agar plates of the required strength. Control plates for each set of strains were created by adding 18 mL of agar to 2 mL of SDW.
(§5) Suspensions of each bacterial species were prepared with a density equal to that of a 0.5 McFarland standard using a densitometer. All suspensions were made using sterile distilled water and fresh 18-20 hour cultures. As a 0.5 McFarland standard contains 1.5×10^8 CFU/mL and the multipoint inoculators applies 1 μL spots of liquid, each bacterial suspension was diluted 1/15 (20 μL suspension to 280 μL sterile distilled water).
(§6) Bacterial suspensions were prepared from fresh 18-24 hour cultures as previously described. 1 μL of each strain was inoculated onto all 100 agar plates containing a different chemical concentration and the 2 control plates. This was done using a multipoint inoculator which inoculates 20 strains per plate. All plates were incubated for 22 hours at 37° C. in aerobic conditions.
(§7) Each plate was examined for bacterial growth after 22 and 48 hours, with each being incubated in between examinations. A positive result was recorded as growth of ≧10 colonies. A negative result was recorded as growth of <10 colonies as this is equivalent to 99.9% inhibition. The lowest concentration of chemical that inhibited growth was recorded as the MIC. The results are recorded in Table IV below, where the numbers are quoted in mmol/L.
(§8) Given the positive performance of the ethoxylates of lauryl alcohol in reducing the MIC for a number of the micro-organisms tested, further MIC testing of Laureth-1 [C12E1] through to Laureth-8 [C12E8] was conducted on each of the following: • 10 strains of vancomycin-resistant enterococci (VRE)—listed in Table V below; and • 20 strains of methicillin-resistant Staphylococcus aureus (MRSA)—listed in Table VI.
(§9) The alkanol, alkanol derivatives, agar plates, and inocula were all prepared in the same way as described above.
(§10) The plates were examined in the same manner as described above and the results are recorded in Table VII below, where the numbers are quoted in mmol/L.

MRSA FRA 95035 = experiment: MIC agar dilution, MRSA strain 37; settings: Staphylococcus aureus
Description: as §2, §3, §4, §5, §6, §7, §8, §9, §10

MRSA EMRSA 15 1758/98 = experiment: MIC agar dilution, MRSA strain 43; settings: Staphylococcus aureus
Description: as §2, §3, §4, §5, §6, §7, §8, §9, §10

Enterococcus faecalis = experiment: MIC agar dilution, micro-organism 17 (775); settings: Enterococcus faecalis 775, read-out: MIC
Summary of the method: as §1

[2] = system: Enterococcus faecium (VRE) MB310; experiment: MIC agar dilution, VRE strain 29
Description: as §2, §3, §4, §5, §6, §7, §8, §9, §10

MRSA NCTC 11939 = experiment: MIC agar dilution, MRSA strain 50; settings: Staphylococcus aureus, MRSA strain 50 NCTC 11939
Description: as §2, §3, §4, §5, §6, §7, §8, §9, §10

Providencia rettgeri = experiment: MIC agar dilution, micro-organism 3 (7475); settings: Providencia rettgeri 7475, read-out: MIC
Summary of the method: as §1

MRSA EMRSA 15 21698/98 = experiment: MIC agar dilution, MRSA strain 41; settings: Staphylococcus aureus
Description: as §2, §3, §4, §5, §6, §7, §8, §9, §10

[3] = system: MRSA GER 1966/97 (Hanover IIIc); experiment: MIC agar dilution, MRSA strain 36; settings: Staphylococcus aureus
Description: as §2, §3, §4, §5, §6, §7, §8, §9, §10

Steptococcus pyogenes = experiment: MIC agar dilution, micro-organism 11 (8306); settings: Steptococcus pyogenes 8306, read-out: MIC
Summary of the method: as §1

[4] = system: Enterococcus faecium (VRE) NCTC 12952; experiment: MIC agar dilution, VRE strain 30
Description: as §2, §3, §4, §5, §6, §7, §8, §9, §10

Candida albicans = experiment: MIC agar dilution, micro-organism 19 (90028); settings: Candida albicans 90028, read-out: MIC
Summary of the method: as §1

[5] = Staphylococcus aureus, MRSA, 22 h, 22 hrs
[6] = Staphylococcus aureus, MRSA, 48 h, 48 hrs

Structure (SMILES)	MIC (MRSA FIN 54518 (E7); 22 hrs) [µM]	MIC (MRSA FIN 54518 (E7); 48 hrs) [µM]	MIC (MRSA FRA 95035; 22 hrs) [µM]	MIC (MRSA FRA 95035; 48 hrs) [µM]	MIC (MRSA EMRSA 15 1758/98; 22 hrs) [µM]	MIC (MRSA EMRSA 15 1758/98; 48 hrs) [µM]	MIC (Enterococcus faecalis; 22 hrs) [µM]	MIC (Enterococcus faecalis; 48 hrs) [µM]	MIC ([2]; 22 hrs) [µM]	MIC ([2]; 48 hrs) [µM]	MIC (MRSA NCTC 11939; 22 hrs) [µM]	MIC (MRSA NCTC 11939; 48 hrs) [µM]	MIC (Providencia rettgeri; 22 hrs) [µM]	MIC (Providencia rettgeri; 48 hrs) [µM]	MIC (MRSA EMRSA 15 21698/98; 22 hrs) [µM]	MIC (MRSA EMRSA 15 21698/98; 48 hrs) [µM]	MIC ([3]; 22 hrs) [µM]	MIC ([3]; 48 hrs) [µM]	MIC ([4]; 22 hrs) [µM]	MIC ([4]; 48 hrs) [µM]	further results
CCCCCCCCCCCCOCCOCCOCCOCCOCCO [L5, Pentaethylene Glycol Monododecyl Ether]	440 (≈ 179 µg/mL)	440 (≈ 179 µg/mL)	110 (≈ 44.7 µg/mL)	110 (≈ 44.7 µg/mL)	110 (≈ 44.7 µg/mL)	110 (≈ 44.7 µg/mL)	110 (≈ 44.7 µg/mL)	110 (≈ 44.7 µg/mL)	110 (≈ 44.7 µg/mL)	110 (≈ 44.7 µg/mL)	110 (≈ 44.7 µg/mL)	110 (≈ 44.7 µg/mL)	> 880	> 880	110 (≈ 44.7 µg/mL)	110 (≈ 44.7 µg/mL)	110 (≈ 44.7 µg/mL)	110 (≈ 44.7 µg/mL)	220 (≈ 89.5 µg/mL)	220 (≈ 89.5 µg/mL)	MIC [1, 5]: 110 µM (≈ 44.7 µg/mL); MIC [1, 6]: 220 µM (≈ 89.5 µg/mL); MIC (Steptococcus pyogenes; 22 h, 22 hrs): ≤ 50 µM; MIC (Steptococcus pyogenes; 48 h, 48 hrs): ≤ 50 µM; MIC (Candida albicans; 22 hrs): 440 µM (≈ 179 µg/mL); MIC (Candida albicans; 48 hrs): 440 µM (≈ 179 µg/mL)
CCCCCCCCCCCCOCCOCCOCCOCCOCCOCCO [L6, Hexaethylene Glycol Monododecyl Ether]	> 440	> 440	220 (≈ 99.1 µg/mL)	440 (≈ 198 µg/mL)	110 (≈ 49.6 µg/mL)	110 (≈ 49.6 µg/mL)	110 (≈ 49.6 µg/mL)	110 (≈ 49.6 µg/mL)	220 (≈ 99.1 µg/mL)	220 (≈ 99.1 µg/mL)	110 (≈ 49.6 µg/mL)	110 (≈ 49.6 µg/mL)	> 880	> 880	110 (≈ 49.6 µg/mL)	110 (≈ 49.6 µg/mL)	110 (≈ 49.6 µg/mL)	110 (≈ 49.6 µg/mL)	> 880	> 880	MIC [1, 5]: 110 µM (≈ 49.6 µg/mL); MIC [1, 6]: 110 µM (≈ 49.6 µg/mL); MIC (Steptococcus pyogenes; 22 h, 22 hrs): ≤ 50 µM; MIC (Steptococcus pyogenes; 48 h, 48 hrs): ≤ 50 µM; MIC (Candida albicans; 22 hrs): > 880 µM; MIC (Candida albicans; 48 hrs): 880 µM (≈ 397 µg/mL)
CCCCCCCCCCCCOCCOCCOCCOCCOCCOCCOCCO [L7, Heptaethylene Glycol Monododecyl Ether]	> 440	> 440	> 440	> 440	220 (≈ 109 µg/mL)	220 (≈ 109 µg/mL)	110 (≈ 54.4 µg/mL)	110 (≈ 54.4 µg/mL)	110 (≈ 54.4 µg/mL)	110 (≈ 54.4 µg/mL)	110 (≈ 54.4 µg/mL)	110 (≈ 54.4 µg/mL)	> 880	> 880	440 (≈ 218 µg/mL)	> 440	110 (≈ 54.4 µg/mL)	110 (≈ 54.4 µg/mL)	> 880	> 880	MIC ([1]; 22 hrs): 220 µM (≈ 109 µg/mL); MIC ([1]; 48 hrs): 220 µM (≈ 109 µg/mL); MIC (Steptococcus pyogenes; 22 hrs): 110 µM (≈ 54.4 µg/mL); MIC (Steptococcus pyogenes; 48 hrs): 110 µM (≈ 54.4 µg/mL); MIC (Candida albicans; 22 hrs): > 880 µM; MIC (Candida albicans; 48 hrs): > 880 µM
CCCCCCCCCCCCOCCOCCOCCOCCOCCOCCOCCOCCO [L8, Octaethylene Glycol Monododecyl Ether]	> 440	> 440	> 440	> 440	> 440	> 440	110 (≈ 59.3 µg/mL)	110 (≈ 59.3 µg/mL)	> 880	> 880	220 (≈ 119 µg/mL)	220 (≈ 119 µg/mL)	> 880	> 880	> 440	> 440	110 (≈ 59.3 µg/mL)	110 (≈ 59.3 µg/mL)	> 880	> 880	MIC [1, 5]: 220 µM (≈ 119 µg/mL); MIC [1, 6]: 440 µM (≈ 237 µg/mL); MIC (Steptococcus pyogenes; 22 h, 22 hrs): ≤ 50 µM; MIC (Steptococcus pyogenes; 48 h, 48 hrs): ≤ 50 µM; MIC (Candida albicans; 22 hrs): > 880 µM; MIC (Candida albicans; 48 hrs): > 880 µM
